Data set [1] is described as follows: anticonvulsant activity against Metrazole (pentylenetetrazol) s.c. in mice, method of Swinyard. Type of data set: in vivo. The note with it: for Number Protected / Number Tested: 1/2 hr before 80 mg/kg s.c. Metrazole; for ED50: Mus musculus, ip, 80 mg/kg s.c. Metrazole, probit analysis, read-out: ED50 and (Confidence Limits). The text has this: The procedure for testing the compounds for their anticonvulsant activity and comparison with prior art compounds is based on evaluation techniques published by Swinyard, E. A. in EPILEPSIA 10: 107-19 (1969) and in J. PHARMAC. EXPTL. THERAP. 106: 319-30 (1952) as explained in greater detail below.
A comparison was made of anti-convulsant activity of the compound of Example 1 and the prior art methyl analog (U.S. Pat. No. 4,226,861, Example 4) using metrazole as the convulsant by the method of Swinyard (See above citation).
Ninety-six adult female mice weighing 24-32 g were randomly assigned to dosage groups according to the method of Steel, R. G. D. and Torrie, J. H. (1960) in "Principles and Procedures of Statistics," McGraw-Hill Book Company, Inc., pp 99-100, pp 428-31. Each mouse was identified with a color code on its tail. The test compounds were administered as suspensions in 10 ml/kg mouse body weight of 0.5% aqueous methyl cellulose within 15 minutes of preparation of the suspension. Metrazole (pentylenetetrazol) was prepared as a solution in physiological saline. The mice were not fasted prior to the test. Eight mice were tested at each dosage level.
Each mouse received one dose of the test drug in the 0.5% aqueous methylcellulose or the control article (0.5% aqueous methylcellulose alone) intraperitoneally. Metrazole (80 mg/kg S.C.) was then given in a loose fold of skin on the back of the neck; i.e., 1/2 hr after the test compound or control article was given. Injections were given with a 1-ml glass tuberculin syringe with appropriate size hypodermic needle (27 gauge for solutions; 23 gauge for suspensions). All injections were given in a volume of 10 ml/kg mouse body weight. […] Anticonvulsant data were tabulated as the percent protection, i.e., [formula] The ED50 and (95% confidence limits) and potency ratio were ascertained by the computer-based probit analysis ascribed to Finney, D. J. (1964) Statistical Method in Biological Assay., 2nd Ed., New York. Hefner Publishing Co. Results are in Table A. Statistical analysis of the data indicated no significant difference in anti-convulsant potency between the two compounds.
(a) All mice were first injected with 10 ml/kg of 0.5% aqueous
methylcellulose intraperitoneally in which test compound was suspended if
(b) 80 mg/kg Metrazole in 10 ml saline of mouse body weight was
administered to all mice subcutaneously in a loose fold of skin on the
back of the neck onehalf hr. after administration of test compound.

The nature of data set [2]: plasma half-life of elimination, two-way crossover oral/intravenous study in dogs. Type of data set: in vivo, mongrel dogs. Conditions: 10 mg/kg, average of oral and intravenous testing, dog plasma, HPLC; read-out: mean apparent terminal half-life of elimination (converted). The protocol:
Tests were conducted in order to compare the apparent half-life of elimination in the animal bloodstream of compounds of the present invention with that of the parent prior art compounds of which they are the metabolites as follows:
A two-way crossover study was conducted on male and female adult mongrel dogs. Each dog, after overnight fasting, received a single oral or intravenous dose of 10 mg/kg of test drug in 75% PEG in water and in such concentration that each dog received 1 ml of solution/kg of body weight. Oral doses were administered by using a glass syringe attached to a Levin® tube (size 18 French) which served as the stomach tube. […] Plasma levels of the test drug in the samples were determined by the HPLC method described by Osman, M. A.; Pinchbeck, F. M.; Cheng, L. K.; and Wright, G. J. described in the Journal of Chromatography, 336 (1981). […] The test drug being measured and the internal standard were then extracted from the plasma into a mixture of hexane, methylene chloride and butanol. […] The final solution was chromatographed on a Waters® column C18 reverse-phase system, the samples being analyzed in sequential order starting with the 0-hr sample (control) and proceeding to the 24 hr sample for the same animal. Duplicate assays were carried out for each sample and the mean value was recorded. […]

One may read the ED50 as the dose that gives a 50% effect, or the effect in half of the subjects. One may read the half-life as the time in which the quantity being followed falls by half.

`NC(=O)N1CC(Oc2cccc(C(F)(F)F)c2)C1` [Example 1, 3-[3-(Trifluoromethyl)phenoxy]-1-azetidinecarboxamide]: the “Number Protected / Number Tested” value is on record as 1/8 in data set [1] (45 mg/kg i.p.); 2/8 in data set [1] (67 mg/kg i.p.); 4/8 in data set [1] (100 mg/kg i.p.); 5/8 in data set [1] (150 mg/kg i.p.); 8/8 in data set [1] (225 mg/kg i.p.). Moreover, the ED50 in data set [1] stood at 99.2 mg/kg. The “Potency and 95% Confidence Limits” value in data set [1] (potency ratio, prior art compound 1.00, i.p.) turned out to be 0.92. Besides, the half-life in data set [2] is 2.4 ± 0.4 h.
Consider `CNC(=O)N1CC(Oc2cccc(C(F)(F)F)c2)C1` [Example 4 of U.S. Pat. No. 4,226,861, N-methyl-3-(3-trifluoromethyl) phenoxy-1-azetidinecarboxamide, reference compound], for which the “Number Protected / Number Tested” value was 1/8 in data set [1] (45 mg/kg i.p.), 2/8 in data set [1] (67 mg/kg i.p.), 3/8 in data set [1] (100 mg/kg i.p.) and 8/8 in data set [1] (150 mg/kg i.p.). The 50% effective dose (ED50) in data set [1] was 90.9 mg/kg. For the same molecule, in data set [2], the half-life was 1.3 ± 0.4 h.

The record behind these values is patent US4571393A, “3-Phenoxy-1-azetidinecarboxamides” (A. H. Robins Company, Incorporated, priority 1984, dated 1986).
